# Experimental data: PMC8704315, “Lichen-Derived Compounds and Extracts as Biologically Active Substances with Anticancer and Neuroprotective Properties” (Pharmaceuticals, 2021)
# Several values for one entry are separate records, joined by “and”; a condition that tells them apart may be missing. Equal entries are not always repeated. Where two headings read alike, the source gives them in different places.
# What was measured:
# [1] = system: T98G cell line; assay: MTT cell viability assay, 48 h, T98G; format: cell-based, Human; conditions: for IC50: Homo sapiens, T98G, read-out: IC50 T98G
# Experimental: Stock solutions in dimethylsulfoxide DMSO (Sigma-Aldrich, St. Louis, MO, USA), (10 mM for compounds and 10 mg/mL for extracts) were prepared and stored at −20 °C. For the experiments, the stock solutions were diluted ex tempore to the final selected concentration with complete cell culture medium.
# Human glioblastoma A-172 and T98G cell lines were purchased from the American Type Culture Collection (ATCC, Manassas, VA, USA), and the European Collection of Authenticated Cell Cultures (ECACC, Salisbury, UK), respectively. The cells were grown at 37 °C in 95% humidified and 5% CO2 atmosphere. Media recommended by the provider were used to cultivate the cells: ATCC-formulated Dulbecco’s modified Eagle’s medium (DMEM) (Sigma Aldrich, St. Louis, MO, USA), and ATCC-formulated Eagle’s Minimum Essential Medium (EMEM) (Sigma-Aldrich, St. Louis, MO, USA) were used for A-172 and T98G cells, respectively. Moreover, the media were supplemented with 10% fetal bovine serum (FBS) (Biowest, France) and 1% antibiotics (penicillin and streptomycin) solution (Sigma-Aldrich, St. Louis, MO, USA). The medium for the T98G cell line was additionally supplemented with 2 mM glutamine, 1% non-essential amino acids, and 1% sodium pyruvate (all obtained from Sigma Aldrich, St. Louis, MO, USA). For the experiments, the amount of FBS was reduced to 5%. All experiments were carried out 24 h after the cells were seeded on 96-well plates.
# The effect of the tested compounds and extracts on GBM cell viability was assessed by measuring the ability of cells to metabolize 3-(4,5-dimethylthiazol-2-yl)-2,5-diphenyl-tetrazolium bromide (MTT), as previously described. In brief, 1 × 10^4 cells per well were seeded on 96-well plates. After 24 h incubation, they were treated with varying concentrations of lichen-derived compounds (1, 5, 10, 25, 50 and 100 µM) and extracts (1, 5, 10, 25, 50 and 100 µg/mL). Cells treated with medium containing the respective concentrations of DMSO (Sigma-Aldrich, St. Louis, MO, USA) were used as a control. After 48 h incubation the cells were washed with phosphate-buffered saline (PBS) buffer and incubated for 4 h in the presence of PBS containing 0.5 mg/mL MTT salt (Merck, Darmstadt, Germany). Next, the formazan crystals were dissolved in acidic isopropanol. In order to enhance dissolution of formazan crystals the plates were shaken on the orbital shaker for 30 min. Finally, the absorbance was measured at λ = 570 nm and λ = 690 nm on the microplate reader (Tecan Infinite M200). All the experiments were repeated three times with at least four measurements per assay.
# [2] = DPPH radical scavenging assay; conditions: highest concentration 750.0 µg/mL for substances, 2500.0 µg/mL for extracts; ± SEM, n = 3
# [3] = target: T1, glutathione peroxidase (GPx) (Bos taurus, UniProt P00435); assay: Effect on glutathione peroxidase activity; format: biochemical; conditions: for inhibition at 243.9 µg/mL: read-out: GPx Inhibition under Reaction Conditions (%)
# T1 construct: purchased Sigma G6137
# T1 sequence (P00435 1-205): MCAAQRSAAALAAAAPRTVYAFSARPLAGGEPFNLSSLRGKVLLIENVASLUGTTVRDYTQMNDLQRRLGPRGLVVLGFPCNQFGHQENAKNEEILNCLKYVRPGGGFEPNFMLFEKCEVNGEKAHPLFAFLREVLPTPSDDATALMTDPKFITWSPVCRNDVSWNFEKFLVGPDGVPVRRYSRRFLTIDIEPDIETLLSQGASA
# Experimental: Sample (20 µL, 5 mg/mL of pure DMSO) was mixed with 8 μL of EDTA solution, 10 μL of glutathione reductase (0.2 U Sigma G3664), 4 μL of GSH solution, 10 μL of glutathione peroxidase (0.04 U Sigma G6137), 22 μL of H2O2 and 332 μL of 50 mM sodium phosphate, pH 7.0). To start the reaction, 4 μL of NADPH solution (N5130) was added and the decrease in the absorbance (340 nm) was read after 10 min of incubation at 25 °C. All solutions were prepared in 50 mM buffer and concentrations of reagents in the final mixture were as follows: 1mM EDTA, 0.2 U glutathione reductase, 2 mM GSH, 0.04 U glutathione peroxidase, 1.5 mM H2O2 and 0.8 mM NADPH. Blank sample was prepared with buffer instead of the studied sample and background was measured (mixture containing studied sample and buffer only). One unit of enzyme activity was defined as nMol of NADPH consumed/min·mL sample, in comparison with nMol of NADPH consumed/min in blank (reagent) sample [76].
# [4] = 243.9 μg/mL in the reaction mixture
smiles,measurement,setting,value
"COc1cc(C)c(C(=O)Oc2cc(C)c(C(=O)O)c(O)c2)c(O)c1 [Evernic acid, evernic acid]",IC50,"[1]; 48 h treatment, MTT, ± SEM",> 33.2 µg/mL and > 100 µM
same,reduction in cell viability T98G,"[1]; highest tested concentration (100 µM), 48 h MTT",~ 20%
same,DPPH IC50,[2],>750.0 µg/mL
same,GPx Inhibitory Activity (nMol Depleted NADPH/min Incubation),[3]; [4],39.9 ± 1.0 nMol Depleted NADPH/min Incubation
same,inhibition at 243.9 µg/mL,[3]; [4],20 ± 2.1%
"Cc1cc(O)c(C=O)c2c1C(=O)Oc1c(CO)c(O)c3c(c1O2)C(O)OC3=O (stereo not drawn) [Salazinic acid, salazinic acid]",IC50,"[1]; 48 h treatment, MTT, ± SEM",> 38.8 µg/mL and > 100 µM
same,DPPH IC50,[2],>750.0 µg/mL
same,GPx Inhibition under Reaction Conditions (%),[3]; [4],-
"CC(=O)C1=C(O)C=C2Oc3c(C(C)=O)c(O)c(C)c(O)c3C2(C)C1=O (single isomer, unassigned; (-)) [(−)-Usnic acid, (−)-usnic acid]",IC50,[1]; 48 h,13 µg/mL and 37.8 µM
same,DPPH IC50,[2],>750.0 µg/mL
same,GPx Inhibitory Activity (nMol Depleted NADPH/min Incubation),[3]; [4],27.3 ± 1.3 nMol Depleted NADPH/min Incubation
same,inhibition at 243.9 µg/mL,[3],13.7 ± 2.3%
